Patent EP1247803A2, “Indolinone compounds suitable for modulation of protein kinases” (Sugen, Inc., priority 1996, dated 1998)

Each molecule was assayed against T1, EGFR (Homo sapiens, UniProt P00533) (assay: EGFR ELISA assay (in vitro kinase activity, EGFR captured from A431 cell lysate)).
T1 construct: Add 7 ug A431 cell lysate per well (EGFR source); endogenous in cells; host or cells: A431
Type: biochemical
Parameters: concentration or dose not given beside the values
Method in brief: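 EGFR from A431 lysate was captured on plates coated with anti-EGFR antibody. Compounds were added 30 min before a 5 min phosphorylation with 3 µM ATP/5 mM MnCl2, which was stopped with 20 mM EDTA. Phosphotyrosine was detected with rabbit anti-phosphotyrosine, then a peroxidase-conjugated secondary and ABTS/H2O2, read at 410 nm.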

T1 sequence (P00533 25-1210): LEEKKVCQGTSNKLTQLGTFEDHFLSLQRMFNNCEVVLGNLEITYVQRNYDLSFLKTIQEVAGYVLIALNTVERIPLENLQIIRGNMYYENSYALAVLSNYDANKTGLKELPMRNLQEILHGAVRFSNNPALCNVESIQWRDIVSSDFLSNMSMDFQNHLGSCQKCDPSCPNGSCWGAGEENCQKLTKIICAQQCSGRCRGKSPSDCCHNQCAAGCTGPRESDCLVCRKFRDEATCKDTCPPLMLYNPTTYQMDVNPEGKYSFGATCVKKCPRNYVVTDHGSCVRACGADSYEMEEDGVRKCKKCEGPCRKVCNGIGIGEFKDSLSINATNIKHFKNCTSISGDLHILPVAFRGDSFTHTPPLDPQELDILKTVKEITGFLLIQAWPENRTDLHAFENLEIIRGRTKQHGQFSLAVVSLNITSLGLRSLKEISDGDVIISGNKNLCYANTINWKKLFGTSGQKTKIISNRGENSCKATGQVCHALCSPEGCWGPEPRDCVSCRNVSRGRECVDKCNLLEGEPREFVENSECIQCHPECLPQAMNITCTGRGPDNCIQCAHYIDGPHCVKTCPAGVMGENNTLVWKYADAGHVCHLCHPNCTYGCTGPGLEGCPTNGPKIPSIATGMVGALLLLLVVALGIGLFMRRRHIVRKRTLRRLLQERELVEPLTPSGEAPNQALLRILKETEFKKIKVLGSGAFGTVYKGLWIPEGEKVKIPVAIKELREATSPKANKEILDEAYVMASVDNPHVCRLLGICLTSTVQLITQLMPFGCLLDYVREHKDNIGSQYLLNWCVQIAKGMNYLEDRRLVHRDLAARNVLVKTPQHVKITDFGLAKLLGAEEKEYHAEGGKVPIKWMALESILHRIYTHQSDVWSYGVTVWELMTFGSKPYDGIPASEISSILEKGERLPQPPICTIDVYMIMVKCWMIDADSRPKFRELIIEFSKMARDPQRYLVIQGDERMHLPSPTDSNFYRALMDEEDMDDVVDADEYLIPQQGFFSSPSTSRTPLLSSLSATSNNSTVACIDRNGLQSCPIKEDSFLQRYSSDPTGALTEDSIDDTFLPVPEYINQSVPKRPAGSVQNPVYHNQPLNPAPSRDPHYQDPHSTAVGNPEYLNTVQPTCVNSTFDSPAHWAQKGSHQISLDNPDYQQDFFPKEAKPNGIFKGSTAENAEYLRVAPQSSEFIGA

| SMILES | Biochem EGFR %Inhibition [%] |
| --- | --- |
| CNS(=O)(=O)c1ccc2c(c1)C(=Cc1ccc(OC)c(OC)c1OC)C(=O)N2 [10730/D02] | 18.6 |
| COc1cc(OC)c(OC)cc1C=C1C(=O)Nc2ccc(I)cc21 [10730/B03] | 46.8 |
| CNS(=O)(=O)c1ccc2c(c1)C(=Cc1ccc(-c3ccccc3Cl)o1)C(=O)N2 [10730/D07] | 43.0 |
| CNS(=O)(=O)c1ccc2c(c1)C(=Cc1cc(C)c(C)o1)C(=O)N2 [10730/D11] | 2.0 |
| CNS(=O)(=O)c1ccc2c(c1)C(=Cc1cn(C(C)=O)c3ccccc13)C(=O)N2 [10730/D05] | 12.6 |
| O=C1Nc2ccc(S(=O)(=O)Nc3ccc(C(F)(F)F)cc3)cc2C1=Cc1ccc(-c2ccccc2Cl)o1 [10730/E07] | 18.8 |
| CSc1ccc(C=C2C(=O)Nc3ccc(CCCl)cc32)cc1 [10729/G04] | 52.9 |
| O=C1Nc2ccc(I)cc2C1=Cc1ccco1 [10718/B10] | 13.7 |
| CC(=O)n1cc(C=C2C(=O)Nc3ccc(S(=O)(=O)N4CCOCC4)cc32)c2ccccc21 [10730/F05] | -16.3 |
| CC(=O)n1cc(C=C2C(=O)Nc3ccc(I)cc32)c2ccccc21 [10730/B05] | 8.5 |
| O=C1Nc2c(Br)cc(Br)cc2C1=Cc1ccc(-c2ccccc2Cl)o1 [10730/A07] | 10.4 |
| COC1CC(C=C2C(=O)Nc3ccc(S(=O)(=O)Nc4ccc(C(F)(F)F)cc4)cc32)C(OC)O1 (stereo not shown) [10730/E10] | 9.3 |
| COC(=O)c1[nH]c(C)c(C=C2C(=O)Nc3ccc(I)cc32)c1C(=O)OC [10718/B07] | 9.9 |
| COc1cc(C=C2C(=O)Nc3ccc(Br)c(C)c32)cc(OC)c1OC [10730/C04] | 0.1 |
| Cc1cc(C=C2C(=O)Nc3ccc(Br)c(C)c32)oc1C [10730/C11] | 38.4 |
| O=C1Nc2ccc(CCCl)cc2C1=Cc1cccnc1 [10729/G08] | 6.0 |
| O=C1Nc2ccc(S(=O)(=O)N3CCOCC3)cc2C1=Cc1cc2ccccc2nc1Cl [10730/F08] | 0.8 |
| COc1ccc(C=C2C(=O)Nc3ccc(CCCl)cc32)c2ccccc12 [10729/G03] | 14.6 |
| O=C1Nc2ccc(S(=O)(=O)Nc3ccc(C(F)(F)F)cc3)cc2C1=Cc1cc2ccccc2nc1Cl [10730/E08] | 6.2 |
| Cc1cc(C=C2C(=O)Nc3c(Br)cc(Br)cc32)oc1C [10730/A11] | 56.4 |
| O=C1Nc2ccc(S(=O)(=O)N3CCOCC3)cc2C1=Cc1coc2ccc(Cl)cc2c1=O [10730/F06] | -0.6 |
| CNS(=O)(=O)c1ccc2c(c1)C(=Cc1cc(OC)c(OC)c(OC)c1)C(=O)N2 [10730/D04] | 10.4 |
| Cc1c(Br)ccc2c1C(=Cc1ccc(-c3ccccc3Cl)o1)C(=O)N2 [10730/C07] | 20.3 |
| Cc1c(Br)ccc2c1C(=Cc1ccc3ccccc3c1O)C(=O)N2 [10718/C04] | 14.8 |
| COc1cc(OC)c(OC)cc1C=C1C(=O)Nc2c(Br)cc(Br)cc21 [10730/A03] | 34.4 |
| COC1CC(C=C2C(=O)Nc3c(Br)cc(Br)cc32)C(OC)O1 (stereo not shown) [10730/A10] | 56.1 |
| COC1CC(C=C2C(=O)Nc3ccc(I)cc32)C(OC)O1 (stereo not shown) [10730/B10] | 15.8 |

| SMILES | Biochem EGFR %Inhibition [%] |
| --- | --- |
| O=C1Nc2ccc(I)cc2C1=Cc1ccc(-c2ccccc2Cl)o1 [10730/B07] | 57.1 |
| O=C1Nc2ccc(S(=O)(=O)Nc3ccc(C(F)(F)F)cc3)cc2C1=Cc1coc2ccc(Cl)cc2c1=O [10730/E06] | 1.5 |
| COc1cc(OC)c(OC)cc1C=C1C(=O)Nc2ccc(S(=O)(=O)N3CCOCC3)cc21 [10730/F03] | 10.4 |
| O=C1Nc2ccc(CCCl)cc2C1=Cc1cccc(Oc2ccccc2)c1 [10729/G06] | 15.2 |
| Cc1c(Br)ccc2c1C(=Cc1cc3ccccc3nc1Cl)C(=O)N2 [10730/C08] | 24.3 |
| CCOC(=O)c1c(C)[nH]c(C=C2C(=O)Nc3ccc(Br)c(C)c32)c1C [10718/C02] | -21.9 |
| Cc1cc(C=C2C(=O)Nc3ccc(I)cc32)oc1C [10730/B11] | 70.2 |
| O=C1Nc2ccc(S(=O)(=O)Nc3ccc(C(F)(F)F)cc3)cc2C1=Cc1ccc(N2CCCC2)cc1 [10729/E10] | 50.3 |
| Cc1c(O)ccc(C=C2C(=O)Nc3ccc(I)cc32)c1O [10718/B09] | -0.8 |
| CNS(=O)(=O)c1ccc2c(c1)C(=CC1CC(OC)OC1OC)C(=O)N2 (stereo not shown) [10730/D10] | 16.7 |
| COc1ccc2ccccc2c1C=C1C(=O)Nc2ccc(CCCl)cc21 [10729/G02] | -4.8 |
| COc1cc(C=C2C(=O)Nc3c(Br)cc(Br)cc32)cc(OC)c1OC [10730/A04] | 37.2 |
| O=C1Nc2ccc(CCCl)cc2C1=Cc1ccc(N2CCCC2)cc1 [10729/G10] | 60.1 |
| COc1ccc(C=C2C(=O)Nc3ccc(S(=O)(=O)N4CCOCC4)cc32)c(OC)c1OC [10730/F02] | 2.9 |
| O=C1Nc2ccc(I)cc2C1=Cc1coc2ccc(Cl)cc2c1=O [10730/B06] | 25.0 |
| O=C1Nc2ccc(CCCl)cc2C1=CC1C=CCCC1 (stereo not shown) [10729/G11] | 23.4 |
| Cc1c(Br)ccc2c1C(=Cc1coc3c(Br)cc(Br)cc3c1=O)C(=O)N2 [10730/C09] | 28.2 |
| CNS(=O)(=O)c1ccc2c(c1)C(=Cc1coc3c(Br)cc(Br)cc3c1=O)C(=O)N2 [10730/D09] | 45.1 |
| COc1cc(C=C2C(=O)Nc3ccc(S(=O)(=O)Nc4ccc(C(F)(F)F)cc4)cc32)cc(OC)c1OC [10730/E04] | 13.5 |
| CC(=O)n1cc(C=C2C(=O)Nc3ccc(Br)c(C)c32)c2ccccc21 [10730/C05] | -9.8 |
| CNS(=O)(=O)c1ccc2c(c1)C(=Cc1cc3ccccc3nc1Cl)C(=O)N2 [10730/D08] | 44.9 |
| CNS(=O)(=O)c1ccc2c(c1)C(=Cc1coc3ccc(Cl)cc3c1=O)C(=O)N2 [10730/D06] | 35.3 |
| O=C1Nc2ccc(I)cc2C1=Cc1coc2c(Br)cc(Br)cc2c1=O [10730/B09] | 14.2 |
| Cc1cc(C=C2C(=O)Nc3ccc(S(=O)(=O)Nc4ccc(C(F)(F)F)cc4)cc32)oc1C [10730/E11] | 19.1 |
| O=C1Nc2ccc(CCCl)cc2C1=Cc1ccccn1 [10729/G07] | -0.8 |
| O=C1Nc2c(Br)cc(Br)cc2C1=Cc1ccc(Br)cc1 [10717/A08] | 39.1 |
| O=C1Nc2c(Br)cc(Br)cc2C1=Cc1cc2ccccc2nc1Cl [10730/A08] | 10.4 |

| SMILES | Biochem EGFR %Inhibition [%] |
| --- | --- |
| COc1cc(Br)c(O)c(C=C2C(=O)Nc3ccc(Br)c(C)c32)c1 [10718/C03] | 41.3 |
| O=C1Nc2ccc(S(=O)(=O)Nc3ccc(C(F)(F)F)cc3)cc2C1=CC1C=CCCC1 (stereo not shown) [10729/E11] | 25.7 |
| O=C1Nc2ccc(CCCl)cc2C1=Cc1ccncc1 [10729/G09] | 20.8 |
| COc1cc(C=C2C(=O)Nc3ccc(I)cc32)cc(OC)c1OC [10730/B04] | 36.5 |
| COc1ccc(C=C2C(=O)Nc3c(Br)cc(Br)cc32)c(OC)c1OC [10730/A02] | 27.5 |
| COc1cc(OC)c(OC)cc1C=C1C(=O)Nc2ccc(Br)c(C)c21 [10730/C03] | -12.1 |
| O=C1Nc2ccc(S(=O)(=O)Nc3ccc(C(F)(F)F)cc3)cc2C1=Cc1coc2c(Br)cc(Br)cc2c1=O [10730/E09] | 21.7 |
| O=C1Nc2ccc(I)cc2C1=Cc1ccc([N+](=O)[O-])o1 [10718/B11] | 30.3 |
| COc1ccc(C=C2C(=O)Nc3ccc(I)cc32)c(OC)c1OC [10730/B02] | 10.4 |
| CC(=O)n1cc(C=C2C(=O)Nc3ccc(S(=O)(=O)Nc4ccc(C(F)(F)F)cc4)cc32)c2ccccc21 [10730/E05] | 15.8 |
| Cc1ccsc1C=C1C(=O)Nc2ccc(CCCl)cc21 [10729/G05] | 4.4 |
| COC1CC(C=C2C(=O)Nc3ccc(Br)c(C)c32)C(OC)O1 (stereo not shown) [10730/C10] | 20.5 |
| O=C1Nc2ccc(S(=O)(=O)Nc3ccc(C(F)(F)F)cc3)cc2C1=Cc1ccncc1 [10729/E09] | 29.6 |
| COc1ccc(C=C2C(=O)Nc3ccc(S(=O)(=O)Nc4ccc(C(F)(F)F)cc4)cc32)c(OC)c1OC [10730/E02] | 17.7 |
| O=C1Nc2ccc(S(=O)(=O)N3CCOCC3)cc2C1=Cc1ccc(-c2ccccc2Cl)o1 [10730/F07] | 27.3 |
| COc1cc(C=C2C(=O)Nc3ccc(S(=O)(=O)N4CCOCC4)cc32)cc(OC)c1OC [10730/F04] | -4.8 |
| O=C1Nc2c(Br)cc(Br)cc2C1=Cc1coc2ccc(Cl)cc2c1=O [10730/A06] | 6.7 |
| CC(=O)n1cc(C=C2C(=O)Nc3c(Br)cc(Br)cc32)c2ccccc21 [10730/A05] | 18.6 |
| O=C1Nc2c(Br)cc(Br)cc2C1=Cc1coc2c(Br)cc(Br)cc2c1=O [10730/A09] | 1.1 |
| O=C1Nc2ccc(I)cc2C1=Cc1cc2ccccc2nc1Cl [10730/B08] | 48.4 |
| O=C1Nc2ccc(I)cc2C1=Cc1ccc(Cl)c([N+](=O)[O-])c1 [10718/B08] | 28.9 |
| COc1cc(OC)c(OC)cc1C=C1C(=O)Nc2ccc(S(=O)(=O)Nc3ccc(C(F)(F)F)cc3)cc21 [10730/E03] | 65.3 |
| CNS(=O)(=O)c1ccc2c(c1)C(=Cc1cc(OC)c(OC)cc1OC)C(=O)N2 [10730/D03] | 9.9 |
| Cc1c(Br)ccc2c1C(=Cc1coc3ccc(Cl)cc3c1=O)C(=O)N2 [10730/C06] | 8.5 |
| COc1ccc(C=C2C(=O)Nc3ccc(Br)c(C)c32)c(OC)c1OC [10730/C02] | 2.7 |
